Patent US20240041890A1, “ANTI-HAIR-LOSS COMPOSITION” (WELLA GERMANY GMBH, priority 2020, published 2024)

How the values were obtained:
[1] = tested on: hair follicles in human full thickness scalp skin punches; experiment: Microscopic hair cycle staging and hair cycle score in ex vivo cultured scalp skin; assay type: cell-based; settings: for hair cycle score ± SEM: 100 = anagen, 200 = early catagen, 300 = mid catagen, 400 = late catagen, lower number = more hairs in anagen; for % of hair follicles in anagen phase / % of hair follicles in early catagen phase: two topical treatments (day 1 and 3), evaluated after 5 days of ex vivo culture
Experimental: Human full thickness scalp skin punches (6 mm diameter) with hair from the occipital region were obtained from a donor. The dissected human punches were cultured at 37° C. with 5% CO2 in a minimal media of William's E media (Gibco, Life Technologies) supplemented with 10 ng/ml hydrocortisone (Sigma Aldrich), 10 μg/ml insulin (Sigma Aldrich) and 1% penicllin/streptomycin (Gibco) to make William's Complete Media (WCM) modified as previously described (Edelkamp et al., Molecular Dermatology 2020, Langan et al., Exp Dermatol 2015). After 24 h resting culture (day 0), two topical treatments were Performed (day 1 and 3). The medium was changed at day 3. Punches were embedded in OCT Compound (Optimal Cutting Temperature Compound) after 5 days (day 5) of ex vivo culture and cryosectioned (7 μm sections). The experimental groups for the topical treatments are outlined in Table 3.
Hair cycle staging and hair cycle score are perfomed at the end of the culture and can be determined according to several established macroscopic and microscopic paremeters (Langan et al., Exp Dermatol 2015; Oh et al., JID 2016).
Hair follicles are microscopically evaluated for the hair cycle staging using Masson-Fontana histochemistry and Ki-67/TUNEL immunostaining as previously described (Kloepper at al., Exp Dermatol 2010; Langan et al., Exp Dermatol 2015). For each experimental group, the percentage of hair follicles in each hair cycle phase was calculated and is shown below.

human hair follicles = settings: by decreasing apoptosis and increasing the production of growth factor IGF-1; cited from earlier work
[2] = target: T1, olfactory receptor OR2AT4 (Homo sapiens, UniProt A6NND4); settings: OR2AT4 expressed in the epithelium of human hair follicles; cited from earlier work
T1 sequence (A6NND4 1-320): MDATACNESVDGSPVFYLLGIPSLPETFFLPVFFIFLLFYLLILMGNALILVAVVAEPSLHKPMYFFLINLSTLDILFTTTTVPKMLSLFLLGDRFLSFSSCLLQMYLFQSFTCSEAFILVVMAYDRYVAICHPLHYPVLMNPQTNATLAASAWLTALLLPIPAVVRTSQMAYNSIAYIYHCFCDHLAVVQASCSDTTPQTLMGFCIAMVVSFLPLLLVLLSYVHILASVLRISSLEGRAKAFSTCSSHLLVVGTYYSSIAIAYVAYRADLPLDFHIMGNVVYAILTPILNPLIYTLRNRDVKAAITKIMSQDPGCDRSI

| Structure (SMILES) | hair cycle score ± SEM [1] [arbitrary units] | % of hair follicles in anagen phase [1] [%] | % of hair follicles in early catagen phase [1] [%] | effect on anagen (in words) ([1]; topical application on ex vivo cultured scalp skin) | effect on hair growth ex vivo (human hair follicles) | effect on the olfactory receptor OR2AT4 [2] |
| --- | --- | --- | --- | --- | --- | --- |
| Nc1cc(N2CCCCC2)nc(N)[n+]1[O-] [#5 Minox), Minoxidil] | 123.1 ± 12.16 | 77 | 23 |  |  |  |
| CC1=CCC(CCC(C)C(C)O)C1(C)C (stereo not drawn) [#2 (Sand), 3-methyl-5-(2,2,3-trimethylcyclopent-3-en-1-yl)pentan-2-ol] | 137.5 ± 12.5 | 63 | 38 | prolongs anagen | prolongs hair growth ex vivo | stimulatory effect |
